This test addresses human GLP1R (hGLP1R) (Homo sapiens, UniProt P43220). The test is described as follows: Human GLP1R cAMP agonist assay (GloSensor cAMP Assay). The test is classed as cell-based. The following applies: HEK293-SNAP-hGLP1R-GloSensor cells; for Emax: cAMP activity as percent of GLP1 (7-36) EC100 control; for EC50: intracellular cAMP, 12 min at rt. The method, then: Compounds of formula (I) according to the invention were tested in the following cellular assays that measure the intracellular cAMP concentration, beta-arrestin recruitment and receptor internalization. The cAMP is generated by the activation of GLP1R. The extent to which the GLP1R is internalized into the cell and away from the plasma membrane following activation is also shown in Table 2. EC50 for each assay is defined as the concentration of the compound that leads to half of the maximum response (after baseline correction). Emax is defined as the maximum response observed for the test compound, normalized to the maximum response observed for the endogenous ligand (GLP1(7-36)) to GLP1R.
Human GLP1R cAMP Agonist Assay
The agonist activity of compounds was determined using the GloSensor™ cAMP Assay (Promega Corp.), which measures changes in the intracellular concentration of cAMP after ligand activation of GPCRs. The assay uses a biosensor encoded by pGloSensor™-22F cAMP plasmid (Promega, cat #E2301) with cAMP binding domains fused to a mutant form of Photinus pyralis luciferase. Binding to cAMP causes conformational changes that promote large increases in light output, which can be measured by a luminescence detector. HEK293-SNAP-hGLP1R-GloSensor cells stably overexpressing the human GLP1 receptor (hGLP1R) and pGloSensor™-22F were seeded in white 384-well poly-D-Lysine coated plates (Greiner Bio One, cat #781945) in CO2-independent media (Gibco cat #18045-088 with 1.0% FBS, 2 mM L-glutamine, penicillin and streptomycin) and incubated overnight at 37° C., 5% CO2 with humidity. The assay was started the following morning by adding an equal volume of CO2-independent media containing 4% v/v dilution of the GloSensor substrate (Promega, cat #E1291) to all wells. The cell plate was incubated at rt for 2 h in the dark. The Biomek 7 (Beckman Coulter) instrument was used for the liquid handling steps. To generate duplicate dose response curves, 3-fold serially diluted compounds were added in to the cell assay plate to a final volume of 60 μL with final concentrations ranging from 30 μM through 0.06 μM in CO2-independent media containing 0.1% BSA, 0.5 mM IBMX and 0.4% DMSO. In the same plate and assay buffer as the tested compounds, were EC100 control wells containing GLP1 (7-36) peptide (Bachem, cat #H-6795) at a final concentration of 2 nM and also EC0 control wells containing no peptide. This plate was incubated at rt in the dark for 12 min after adding the compounds to the cells. Luminescence was then measured with an Envision 2104 Multilabel reader with “TRF Light Unit, 337 nm” (PerkinElmer) using the Ultra-Sensitive protocol setting “384-well US luminescence detector” with the 384-well luminescence aperture, 0.1 seconds per well. cAMP activity was calculated as percent of the GLP1 (7-36) EC100 control wells: [(sample signal−mean EC0 signal)/(mean EC100 of GLP1 (7-36) signal−mean EC0 signal)}*100. Curve fitting for EC50 determinations was performed in the Helios module of the software package DAVID. The 4-parameter logistic model, Hill slope was used: y=Ainf+(A0−Ainf)/(1+(x/AC50)^Hill Slope) where y is the functional response; x is the compound concentration; A0 is the minimum value (at 0 dose); Ainf is the maximum value (at infinite dose); AC50 corresponds to the point of inflection (i.e. the point on the sigmoid shaped curve halfway between A0 and Ainf). The EC50 value was represented by the AC50 value calculated from Helios in μM. Emax is the maximal activity detected within the concentration range, derived from the fitted curve.
327 μL of Opti-MEM medium (Gibco, cat #31985-062) were mixed with 12 μL of FuGENE® HD (Promega, cat #E2311) and incubated at rt for 5 min. Then 8.2 μL (4 μg, 0.485 μg/μL solution) of pSNAP-hGLP1R plasmid (Cisbio, cat #PSNAP-GLP1) encoding human GLP1R (NCBI Reference Sequence: NM_002062.3) fused with Cisbio's SNAP tag was added in to the Fugene HD/Opti-MEM mix, and incubated at rt for 20 min. […]

human GLP1R (hGLP1R), sequence (P43220 24-463): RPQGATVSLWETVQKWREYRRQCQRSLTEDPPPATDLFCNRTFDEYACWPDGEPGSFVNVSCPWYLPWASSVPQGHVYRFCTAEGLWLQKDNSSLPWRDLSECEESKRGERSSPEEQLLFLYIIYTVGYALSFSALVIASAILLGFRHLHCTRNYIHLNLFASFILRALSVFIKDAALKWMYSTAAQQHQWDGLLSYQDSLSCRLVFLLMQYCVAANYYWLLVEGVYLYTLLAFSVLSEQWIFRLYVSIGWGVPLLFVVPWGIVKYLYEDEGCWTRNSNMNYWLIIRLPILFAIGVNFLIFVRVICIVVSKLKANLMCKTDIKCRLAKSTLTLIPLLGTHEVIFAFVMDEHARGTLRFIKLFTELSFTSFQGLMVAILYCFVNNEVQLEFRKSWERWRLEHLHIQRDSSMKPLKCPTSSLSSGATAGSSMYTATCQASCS

As usually defined, the Emax is the greatest response seen or fitted, relative to the assay's reference. The EC50 is the concentration needed to bring the measured effect to its halfway point. A high value points to weaker potency. Consider `Cc1c(-c2nc(C(F)(F)F)c(C(=O)O)o2)nc(CN2CCC(c3cccc4c3O[C@@](C)(c3ccc(Cl)cc3F)O4)CC2)n1C[C@@H]1CCO1` [Compound C-14, 2-(2-((4-((S)-2-(4-chloro-2-fluorophenyl)-2-methylbenzo[d][1,3]dioxol-4-yl)piperidin-1-yl)methyl)-5-methyl-1-(((S)-oxetan-2-yl)methyl)-1H-imidazol-4-yl)-4-(trifluoromethyl)oxazole-5-carboxylic acid], for which the Emax was 104% and the response was half-maximal at 492 pM (EC50).

In the case of `Cc1c(-c2cnc(C(=O)O)o2)nc(CN2CCC(c3cccc4c3O[C@@](C)(c3ccc(Cl)cc3F)O4)CC2)n1C[C@@H]1CCO1` [Compound C-16, 5-(2-((4-((S)-2-(4-chloro-2-fluorophenyl)-2-methylbenzo[d][1,3]dioxol-4-yl)piperidin-1-yl)methyl)-5-methyl-1-(((S)-oxetan-2-yl)methyl)-1H-imidazol-4-yl)oxazole-2-carboxylic acid], the maximal effect (Emax) was 108% and the EC50 was 171 pM.

Regarding `Cc1c(-c2cc(C(=O)O)n(C)n2)nc(CN2CCC(c3cccc4c3O[C@@](C)(c3ccc(Cl)cc3F)O4)CC2)n1C[C@@H]1CCO1` [Compound C-17, 3-(2-((4-((S)-2-(4-chloro-2-fluorophenyl)-2-methylbenzo[d][1,3]dioxol-4-yl)piperidin-1-yl)methyl)-5-methyl-1-(((S)-oxetan-2-yl)methyl)-1H-imidazol-4-yl)-1-methyl-1H-pyrazole-5-carboxylic acid], the Emax amounted to 113% and the EC50 is 754 pM.

With `Cc1c(-c2coc(C(=O)O)n2)nc(CN2CCC(c3cccc4c3O[C@@](C)(c3ccc(Cl)cc3F)O4)CC2)n1C[C@@H]1CCO1` [Compound C-18, 4-(2-((4-((S)-2-(4-chloro-2-fluorophenyl)-2-methylbenzo[d][1,3]dioxol-4-yl)piperidin-1-yl)methyl)-5-methyl-1-(((S)-oxetan-2-yl)methyl)-1H-imidazol-4-yl)oxazole-2-carboxylic acid], the Emax amounted to 115% and the half-maximal effective concentration (EC50) worked out at 188 pM.

For the compound `Cc1cc(-c2nc(CN3CCC(c4cccc5c4O[C@@](C)(c4ccc(Cl)cc4F)O5)CC3)n(C[C@@H]3CCO3)c2C)oc1C(=O)O` [Compound C-19, 5-(2-((4-((S)-2-(4-chloro-2-fluorophenyl)-2-methylbenzo[d][1,3]dioxol-4-yl)piperidin-1-yl)methyl)-5-methyl-1-(((S)-oxetan-2-yl)methyl)-1H-imidazol-4-yl)-3-methylfuran-2-carboxylic acid], the Emax was 109% and the EC50 came to 377 pM.

Take `Cc1nc(CN2CCC(c3cccc4c3O[C@@](C)(c3ccc(Cl)cc3F)O4)CC2)n(C[C@@H]2CCO2)c1-c1coc(C(=O)O)n1` [Compound C-20, 4-(2-((4-((S)-2-(4-chloro-2-fluorophenyl)-2-methylbenzo[d][1,3]dioxol-4-yl)piperidin-1-yl)methyl)-4-methyl-1-(((S)-oxetan-2-yl)methyl)-1H-imidazol-5-yl)oxazole-2-carboxylic acid]: the maximal response (Emax) is 112% and a half-maximal effect (EC50) was put at 240 pM.

`Cc1nc(CN2CCC(c3cccc4c3O[C@@](C)(c3ccc(Cl)cc3F)O4)CC2)n(C[C@@H]2CCO2)c1-c1cc(C(=O)O)n(C)n1` [Compound C-21, 3-(2-((4-((S)-2-(4-chloro-2-fluorophenyl)-2-methylbenzo[d][1,3]dioxol-4-yl)piperidin-1-yl)methyl)-4-methyl-1-(((S)-oxetan-2-yl)methyl)-1H-imidazol-5-yl)-1-methyl-1H-pyrazole-5-carboxylic acid] displayed an Emax of 117% and a concentration for a half-maximal effect (EC50) of 836 pM.

Compound `Cc1c(-c2ccc(C(=O)O)o2)nc(CN2CCC(c3cccc4c3O[C@@](C)(c3ccc(Cl)cc3F)O4)CC2)n1C[C@@H]1CCO1` [Compound C-24, 5-(2-((4-((S)-2-(4-chloro-2-fluorophenyl)-2-methylbenzo[d][1,3]dioxol-4-yl)piperidin-1-yl)methyl)-5-methyl-1-(((S)-oxetan-2-yl)methyl)-1H-imidazol-4-yl)furan-2-carboxylic acid] showed an Emax of 113% and a 50% effective concentration (EC50) of 102 pM.

These data come from patent US20250145600A1, “2-((4-((S)-2-(4-CHLORO-2-FLUOROPHENYL)-2-METHYLBENZO[D][1,3]DIOXOL-4-YL)PIPERIDIN-1-YL)METHYL)-1-(((S)-OXETAN-2-YL)METHYL)-1H-IMIDAZOLE DERIVATIVES AS ACTIVATORS OF THE GLP1 RECEPTOR FOR THE TREATMENT OF OBESITY” (Novartis AG, priority 2022, published 2025).
